Reference: the supplement of paper PMC10733146

Experiments:
Assay in all cases: viability relative to DMSO control (fraction); higher = less drug effect (more viable cells)
Conditions in all cases: 48 h
[1] = system: primary ALL patient cells (S048)
Outline: (§1)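 Primary mononuclear tumour cells (Ficoll-isolated from blood or bone marrow, or processed lymph node; fresh or cryopreserved) were plated at 4 × 10^4 cells per well in 384-well plates with pre-plated compounds at five concentrations, one well each. Medium was RPMI-1640 with penicillin/streptomycin, L-glutamine and human serum, at 37 °C and 5% CO2 for 48 h. Viability was read as CellTiter-Glo luminescence relative to the median of 16 inner DMSO wells.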

[2] = system: primary ALL patient cells (S088)
Outline: as §1

[3] = system: primary AML patient cells (S002)
Outline: as §1

[4] = system: primary AML patient cells (S009)
Outline: as §1

[5] = system: primary AML patient cells (S017)
Outline: as §1

[6] = system: primary AML patient cells (S019)
Outline: as §1

[7] = system: primary AML patient cells (S021)
Outline: as §1

[8] = system: primary AML patient cells (S025)
Outline: as §1

[9] = system: primary AML patient cells (S055)
Outline: as §1

[10] = system: primary AML patient cells (S060)
Outline: as §1

[11] = system: primary AML patient cells (S071)
Outline: as §1

[12] = system: primary AML patient cells (S072)
Outline: as §1

[13] = system: primary AML patient cells (S079)
Outline: as §1

[14] = system: primary AML patient cells (S089)
Outline: as §1

[15] = system: primary AML patient cells (S091)
Outline: as §1

[16] = system: primary B-PLL patient cells (S016)
Outline: as §1

[17] = system: primary DLBCL patient cells (S082)
Outline: as §1

[18] = system: primary FL patient cells (S022)
Outline: as §1

[19] = system: primary FL patient cells (S087)
Outline: as §1

[20] = system: primary MCL patient cells (S053)
Outline: as §1

SMILES: CC[C@H](Nc1ncnc2[nH]cnc12)c1nc2cccc(F)c2c(=O)n1-c1ccccc1 [Idelalisib]
- viability ([1]; 0.0032 µM): 1.01
- viability ([1]; 0.016 µM): 0.934
- viability ([1]; 0.08 µM): 0.861
- viability ([1]; 0.4 µM): 0.751
- viability ([1]; 2 µM): 0.752
- viability ([2]; 0.0032 µM): 1.02
- viability ([2]; 0.016 µM): 0.948
- viability ([2]; 0.08 µM): 0.895
- viability ([2]; 0.4 µM): 0.914
- viability ([2]; 2 µM): 0.831
- viability ([3]; 0.0032 µM): 0.969
- viability ([3]; 0.016 µM): 1.02
- viability ([3]; 0.08 µM): 0.957
- viability ([3]; 0.4 µM): 0.924
- viability ([3]; 2 µM): 0.785
- viability ([4]; 0.0032 µM): 0.985
- viability ([4]; 0.016 µM): 1.02
- viability ([4]; 0.08 µM): 1.04
- viability ([4]; 0.4 µM): 0.998
- viability ([4]; 2 µM): 0.905
- viability ([5]; 0.0032 µM): 1.09
- viability ([5]; 0.016 µM): 1.1
- viability ([5]; 0.08 µM): 1.16
- viability ([5]; 0.4 µM): 0.988
- viability ([5]; 2 µM): 0.808
- viability ([6]; 0.0032 µM): 1.02
- viability ([6]; 0.016 µM): 0.936
- viability ([6]; 0.08 µM): 1.01
- viability ([6]; 0.4 µM): 1.13
- viability ([6]; 2 µM): 0.996
- viability ([7]; 0.0032 µM): 1.03
- viability ([7]; 0.016 µM): 0.928
- viability ([7]; 0.08 µM): 0.843
- viability ([7]; 0.4 µM): 0.827
- viability ([7]; 2 µM): 0.741
- viability ([8]; 0.0032 µM): 0.92
- viability ([8]; 0.016 µM): 0.935
- viability ([8]; 0.08 µM): 0.959
- viability ([8]; 0.4 µM): 1.14
- viability ([8]; 2 µM): 0.924
- viability ([9]; 0.0032 µM): 1
- viability ([9]; 0.016 µM): 0.961
- viability ([9]; 0.08 µM): 0.909
- viability ([9]; 0.4 µM): 0.972
- viability ([9]; 2 µM): 0.875
- viability ([10]; 0.0032 µM): 1.04
- viability ([10]; 0.016 µM): 1.02
- viability ([10]; 0.08 µM): 1.03
- viability ([10]; 0.4 µM): 1.08
- viability ([10]; 2 µM): 1.03
- viability ([11]; 0.0032 µM): 0.959
- viability ([11]; 0.016 µM): 0.868
- viability ([11]; 0.08 µM): 0.812
- viability ([11]; 0.4 µM): 0.733
- viability ([11]; 2 µM): 0.662
- viability ([12]; 0.0032 µM): 0.995
- viability ([12]; 0.016 µM): 0.883
- viability ([12]; 0.08 µM): 0.922
- viability ([12]; 0.4 µM): 0.82
- viability ([12]; 2 µM): 0.803
- viability ([13]; 0.0032 µM): 1.01
- viability ([13]; 0.016 µM): 0.954
- viability ([13]; 0.08 µM): 0.906
- viability ([13]; 0.4 µM): 0.844
- viability ([13]; 2 µM): 0.793
- viability ([14]; 0.0032 µM): 0.965
- viability ([14]; 0.016 µM): 0.739
- viability ([14]; 0.08 µM): 0.924
- viability ([14]; 0.4 µM): 0.671
- viability ([14]; 2 µM): 0.58
- viability ([15]; 0.0032 µM): 0.929
- viability ([15]; 0.016 µM): 0.838
- viability ([15]; 0.08 µM): 0.773
- viability ([15]; 0.4 µM): 0.697
- viability ([15]; 2 µM): 0.558
- viability ([16]; 0.0032 µM): 1.08
- viability ([16]; 0.016 µM): 0.889
- viability ([16]; 0.08 µM): 0.905
- viability ([16]; 0.4 µM): 0.794
- viability ([16]; 2 µM): 0.751
- viability ([17]; 0.0032 µM): 1.05
- viability ([17]; 0.016 µM): 0.893
- viability ([17]; 0.08 µM): 0.812
- viability ([17]; 0.4 µM): 0.768
- viability ([17]; 2 µM): 0.668
- viability ([18]; 0.0032 µM): 1.05
- viability ([18]; 0.016 µM): 1.09
- viability ([18]; 0.08 µM): 0.955
- viability ([18]; 0.4 µM): 0.939
- viability ([18]; 2 µM): 0.929
- viability ([19]; 0.0032 µM): 0.984
- viability ([19]; 0.016 µM): 0.923
- viability ([19]; 0.08 µM): 0.848
- viability ([19]; 0.4 µM): 0.78
- viability ([19]; 2 µM): 0.793
- viability ([20]; 0.0032 µM): 1.02
- viability ([20]; 0.016 µM): 0.96
- viability ([20]; 0.08 µM): 0.946
- viability ([20]; 0.4 µM): 0.877
- viability ([20]; 2 µM): 0.815

SMILES: CC(C)c1cc(-c2n[nH]c(=O)n2-c2ccc3c(ccn3C)c2)c(O)cc1O [Ganetespib]
- viability ([1]; 0.0032 µM): 0.9
- viability ([1]; 0.016 µM): 0.632
- viability ([1]; 0.08 µM): 0.517
- viability ([1]; 0.4 µM): 0.48
- viability ([1]; 2 µM): 0.453
- viability ([2]; 0.0032 µM): 0.823
- viability ([2]; 0.016 µM): 0.425
- viability ([2]; 0.08 µM): 0.274
- viability ([2]; 0.4 µM): 0.259
- viability ([2]; 2 µM): 0.267
- viability ([3]; 0.0032 µM): 0.957
- viability ([3]; 0.016 µM): 0.414
- viability ([3]; 0.08 µM): 0.328
- viability ([3]; 0.4 µM): 0.326
- viability ([3]; 2 µM): 0.323
- viability ([4]; 0.0032 µM): 0.953
- viability ([4]; 0.016 µM): 0.743
- viability ([4]; 0.08 µM): 0.542
- viability ([4]; 0.4 µM): 0.56
- viability ([4]; 2 µM): 0.567
- viability ([5]; 0.0032 µM): 1.07
- viability ([5]; 0.016 µM): 0.996
- viability ([5]; 0.08 µM): 0.371
- viability ([5]; 0.4 µM): 0.326
- viability ([5]; 2 µM): 0.31
- viability ([6]; 0.0032 µM): 0.923
- viability ([6]; 0.016 µM): 0.682
- viability ([6]; 0.08 µM): 0.411
- viability ([6]; 0.4 µM): 0.465
- viability ([6]; 2 µM): 0.444
- viability ([7]; 0.0032 µM): 0.917
- viability ([7]; 0.016 µM): 0.742
- viability ([7]; 0.08 µM): 0.53
- viability ([7]; 0.4 µM): 0.637
- viability ([7]; 2 µM): 0.617
- viability ([8]; 0.0032 µM): 0.936
- viability ([8]; 0.016 µM): 0.579
- viability ([8]; 0.08 µM): 0.343
- viability ([8]; 0.4 µM): 0.334
- viability ([9]; 0.0032 µM): 0.976
- viability ([9]; 0.016 µM): 0.928
- viability ([9]; 0.08 µM): 0.403
- viability ([9]; 0.4 µM): 0.368
- viability ([9]; 2 µM): 0.337
- viability ([10]; 0.0032 µM): 0.97
- viability ([10]; 0.016 µM): 1.05
- viability ([10]; 0.08 µM): 0.154
- viability ([10]; 0.4 µM): 0.118
- viability ([10]; 2 µM): 0.107
- viability ([11]; 0.0032 µM): 0.892
- viability ([11]; 0.016 µM): 0.357
- viability ([11]; 0.08 µM): 0.142
- viability ([11]; 0.4 µM): 0.167
- viability ([11]; 2 µM): 0.164
- viability ([12]; 0.0032 µM): 1.01
- viability ([12]; 0.016 µM): 0.884
- viability ([12]; 0.08 µM): 0.412
- viability ([12]; 0.4 µM): 0.39
- viability ([12]; 2 µM): 0.377
- viability ([13]; 0.0032 µM): 0.983
- viability ([13]; 0.016 µM): 0.825
- viability ([13]; 0.08 µM): 0.398
- viability ([13]; 0.4 µM): 0.352
- viability ([13]; 2 µM): 0.332
- viability ([14]; 0.0032 µM): 0.692
- viability ([14]; 0.016 µM): 0.371
- viability ([14]; 0.08 µM): 0.182
- viability ([14]; 0.4 µM): 0.254
- viability ([14]; 2 µM): 0.215
- viability ([15]; 0.0032 µM): 0.926
- viability ([15]; 0.016 µM): 0.901
- viability ([15]; 0.08 µM): 0.364
- viability ([15]; 0.4 µM): 0.259
- viability ([15]; 2 µM): 0.26
- viability ([16]; 0.0032 µM): 1.03
- viability ([16]; 0.016 µM): 0.967
- viability ([16]; 0.08 µM): 0.569
- viability ([16]; 0.4 µM): 0.552
- viability ([16]; 2 µM): 0.514
- viability ([17]; 0.0032 µM): 1.02
- viability ([17]; 0.016 µM): 1.12
- viability ([17]; 0.08 µM): 1.09
- viability ([17]; 0.4 µM): 1.04
- viability ([17]; 2 µM): 1.02
- viability ([18]; 0.0032 µM): 0.919
- viability ([18]; 0.016 µM): 0.865
- viability ([18]; 0.08 µM): 0.833
- viability ([18]; 0.4 µM): 0.764
- viability ([18]; 2 µM): 0.727
- viability ([19]; 0.0032 µM): 1.01
- viability ([19]; 0.016 µM): 1.01
- viability ([19]; 0.08 µM): 0.853
- viability ([19]; 0.4 µM): 0.881
- viability ([19]; 2 µM): 0.848
- viability ([20]; 0.0032 µM): 0.941
- viability ([20]; 0.016 µM): 0.809
- viability ([20]; 0.08 µM): 0.326
- viability ([20]; 0.4 µM): 0.332
- viability ([20]; 2 µM): 0.325
